For the series, the target named is T1, CYP17 (steroid 17-alpha-hydroxylase/17,20 lyase) (Homo sapiens, UniProt P05093).
T1 sequence (P05093 whole entry): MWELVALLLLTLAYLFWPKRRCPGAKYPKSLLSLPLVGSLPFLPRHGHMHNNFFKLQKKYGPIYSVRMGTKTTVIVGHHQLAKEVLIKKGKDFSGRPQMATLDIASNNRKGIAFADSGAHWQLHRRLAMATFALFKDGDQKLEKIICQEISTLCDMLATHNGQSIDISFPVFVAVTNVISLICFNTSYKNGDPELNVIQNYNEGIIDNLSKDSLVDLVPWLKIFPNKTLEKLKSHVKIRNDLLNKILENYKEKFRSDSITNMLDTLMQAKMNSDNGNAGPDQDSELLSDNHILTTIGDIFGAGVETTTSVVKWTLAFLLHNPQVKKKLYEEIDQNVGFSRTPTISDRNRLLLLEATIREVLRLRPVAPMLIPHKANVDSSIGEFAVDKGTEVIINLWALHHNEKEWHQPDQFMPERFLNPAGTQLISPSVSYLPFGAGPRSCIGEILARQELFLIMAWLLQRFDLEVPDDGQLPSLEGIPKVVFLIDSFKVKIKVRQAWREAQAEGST
In words: Inhibition of CYP17 at 2.5 uM.

Molecules are shown by their SMILES.

Usually inhibition stands for how much of the control response was suppressed. Lower therefore signals a weak effect. In the case of `COc1ccc(-c2oc3ccccc3c(=O)c2Cn2ccnc2)cc1`, testing at 2.5 µM gave an inhibition of 26%.

For `O=c1c(Cn2ccnc2)c(-c2ccc(Br)cc2)oc2ccccc12`, at 2.5 µM the inhibition was 27%.

On to `COc1ccc2c(=O)c(Cn3ccnc3)c(-c3ccc(Br)cc3)oc2c1`, for which the inhibition at 2.5 µM amounted to 29%.

On to `COc1ccc2c(=O)c(Cn3ccnc3)c(-c3ccc([N+](=O)[O-])cc3)oc2c1`, for which the inhibition at 2.5 µM worked out at 9%.

`COc1ccc2c(=O)c(Cn3ccnc3)c(-c3ccc(C#N)cc3)oc2c1` yielded an inhibition at 2.5 µM of 12%.
